Source: ChEMBL document CHEMBL3407349, “The discovery of Polo-like kinase 4 inhibitors: identification of (1R,2S).2-(3-((E).4-(((cis).2,6-dimethylmorpholino)methyl)styryl). 1H.indazol-6-yl)-5'-methoxyspiro[cyclopropane-1,3'-indolin]-2'-one (CFI-400945) as a potent, orally active antitumor agent” (J Med Chem, 2015)

Key:
[1] = Growth inhibition of human BT20 cells after 5 days by SRB assay; format: functional; conditions: BT-20, 120 h
[2] = AUC(infinity) in Sprague-Dawley rat at 1 mg/kg, iv; format: ADME, organism-based; set-up: time infinity, dose 1 mg/kg, route intravenous; conditions: plasma
Mus musculus [3] = experiment: Toxicity in CB-17 SCID mouse xenografted with human MDA-MB-468 cells assessed as loss in body weight at 3 to 9.4 mg/kg, po qd administered for 21 days relative to control; format: organism-based; set-up: dose 3-9.4 mg/kg, route oral; conditions: in vivo, 504 h
A549 [4] = experiment: Antitumor activity against human A549 cells xenografted in CB-17 SCID mouse assessed as tumor growth inhibition at 3 mg/kg, po qd administered for 21 days; format: functional; conditions: A549, 504 h, read-out: TGI
A549 [5] = experiment: Growth inhibition of human A549 cells after 5 days by SRB assay; format: functional; conditions: A549, 120 h
MDA-MB-468 [6] = experiment: Antitumor activity against human MDA-MB-468 cells xenografted in CB-17 SCID mouse assessed as tumor growth inhibition at 9.4 mg/kg, po qd administered for 21 days; format: functional; conditions: MDA-MB-468, 504 h, read-out: TGI
[7] = Toxicity in po dosed athymic CD-1 nude mouse xenografted with human HCT116 cells administered qd 1-on/3-off schedule up to day 21; format: organism-based, HCT-116; conditions: CD-1 athymic nude, in vivo
[8] = Half life in beagle dog at 1 mg/kg, iv; format: ADME, organism-based, Canis lupus familiaris; set-up: dose 1 mg/kg, route intravenous; conditions: in vivo
[9] = Antitumor activity against human HCT116 cells xenografted in athymic CD-1 nude mouse assessed as tumor growth inhibition at MTD, po qd administered 1-on/3-off schedule up to day 21; format: functional, HCT-116
[10] = Oral bioavailability in Sprague-Dawley rat at 5 mg/kg; format: ADME, organism-based; conditions: in vivo
[11] = Growth inhibition of human OVCAR3 cells after 5 days by SRB assay; format: functional; conditions: OVCAR-3, 120 h
[12] = Oral bioavailability in beagle dog at 5 mg/kg; format: ADME, organism-based, Canis lupus familiaris; conditions: in vivo
HCC1954 = experiment: Growth inhibition of human HCC1954 cells after 5 days by SRB assay; format: functional; conditions: Homo sapiens, HCC1954, 120 h
[13] = Growth inhibition of human HCT116 cells after 5 days by SRB assay; format: functional; conditions: HCT-116, 120 h
MDA-MB-231 = experiment: Growth inhibition of human MDA-MB-231 cells after 5 days by SRB assay; format: functional; conditions: Homo sapiens, MDA-MB-231, 120 h
[14] = Cmax in athymic CD1 nude mouse at 25 mg/kg, po by LC/MS/MS analysis; format: ADME, organism-based; set-up: dose 25 mg/kg, route oral; conditions: in vivo
[15] = Antitumor activity against human SW620 cells xenografted in CB-17 SCID mouse assessed as tumor growth inhibition at 3 mg/kg, po qd administered for 21 days; format: functional; conditions: SW-620, 504 h, read-out: TGI
[16] = AUC in athymic CD1 nude mouse at 25 mg/kg, po by LC/MS/MS analysis; format: ADME, organism-based; set-up: dose 25 mg/kg, route oral; conditions: plasma
[17] = Antitumor activity against human SW620 cells xenografted in CB-17 SCID mouse assessed as tumor growth inhibition at 9.4 mg/kg, po qd administered for 21 days; format: functional; conditions: SW-620, 504 h, read-out: TGI
[18] = AUC(infinity) in beagle dog at 5 mg/kg, po; format: ADME, organism-based, Canis lupus familiaris; set-up: time infinity, dose 5 mg/kg, route oral; conditions: plasma
A549 [19] = experiment: Antitumor activity against human A549 cells xenografted in CB-17 SCID mouse assessed as tumor growth inhibition at 9.4 mg/kg, po qd administered for 21 days; format: functional; conditions: A549, 504 h, read-out: TGI
MDA-MB-468 [20] = experiment: Antitumor activity against human MDA-MB-468 cells xenografted in CB-17 SCID mouse assessed as tumor growth inhibition at 3 mg/kg, po qd administered for 21 days; format: functional; conditions: MDA-MB-468, 504 h, read-out: TGI
[21] = Growth inhibition of human HMEC cells after 5 days by SRB assay; format: cell-based; conditions: HMEC cells
[22] = AUC(infinity) in Sprague-Dawley rat at 5 mg/kg, po; format: ADME, organism-based; set-up: dose 5 mg/kg, route oral, time infinity; conditions: plasma
[23] = Growth inhibition of human CAL51 cells after 5 days by SRB assay; format: functional; conditions: CAL-51, 120 h
[24] = AUC(infinity) in beagle dog at 1 mg/kg, iv; format: ADME, organism-based, Canis lupus familiaris; set-up: time infinity, dose 1 mg/kg, route intravenous; conditions: plasma
Cytochrome P450 2D6 = Cytochrome P450 2D6 (Homo sapiens, UniProt P10635); experiment: Inhibition of CYP2D6 (unknown origin) by fluorescence assay; format: ADME
Mus musculus [25] = experiment: Toxicity in CB-17 SCID mouse xenografted with human MDA-MB-468 cells assessed as mortality at 3 to 9.4 mg/kg, po qd administered for 21 days; format: organism-based; set-up: dose 3-9.4 mg/kg, route oral; conditions: in vivo, 504 h
Cytochrome P450 1A2 = biological target: T1, Cytochrome P450 1A2 (Homo sapiens, UniProt P05177); experiment: Inhibition of CYP1A2 (unknown origin) by fluorescence assay; format: ADME
T1 sequence (P05177 whole entry): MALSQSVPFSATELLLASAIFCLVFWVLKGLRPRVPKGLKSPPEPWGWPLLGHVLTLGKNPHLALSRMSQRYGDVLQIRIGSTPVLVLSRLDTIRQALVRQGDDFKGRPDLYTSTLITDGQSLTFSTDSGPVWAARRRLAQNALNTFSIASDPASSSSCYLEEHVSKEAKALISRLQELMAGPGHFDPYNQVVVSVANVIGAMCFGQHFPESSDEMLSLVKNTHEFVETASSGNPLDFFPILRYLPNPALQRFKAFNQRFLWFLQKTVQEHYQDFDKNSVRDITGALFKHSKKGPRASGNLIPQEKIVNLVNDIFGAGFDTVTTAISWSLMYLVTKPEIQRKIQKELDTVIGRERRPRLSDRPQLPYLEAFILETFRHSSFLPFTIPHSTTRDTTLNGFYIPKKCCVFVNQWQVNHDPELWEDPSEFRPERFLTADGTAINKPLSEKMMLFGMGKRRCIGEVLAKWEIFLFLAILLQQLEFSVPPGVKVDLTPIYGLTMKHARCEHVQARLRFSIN

[26] = Growth inhibition of human COLO205 cells after 5 days by SRB assay; format: functional; conditions: COLO 205, 120 h
[27] = Half life in Sprague-Dawley rat at 1 mg/kg, iv; format: ADME, organism-based; set-up: dose 1 mg/kg, route intravenous; conditions: in vivo
[28] = Growth inhibition of human SKBR3 cells after 5 days by SRB assay; format: functional; conditions: SK-BR-3, 120 h
MCF7 = experiment: Growth inhibition of human MCF7 cells after 5 days by SRB assay; format: functional; conditions: Homo sapiens, MCF7, 120 h
SW-620 = experiment: Growth inhibition of human SW620 cells after 5 days by SRB assay; format: functional; conditions: SW-620, 120 h
MDA-MB-468 [29] = experiment: Growth inhibition of human MDA-MB-468 cells after 5 days by SRB assay; format: functional; conditions: Homo sapiens, MDA-MB-468, 120 h
Rattus norvegicus = experiment: Clearance in Sprague-Dawley rat at 1 mg/kg, iv; format: ADME, organism-based; set-up: dose 1 mg/kg, route intravenous; conditions: in vivo
Angiopoietin-1 receptor [30] = biological target: T2, Angiopoietin-1 receptor (Homo sapiens, UniProt Q02763); experiment: Inhibition of TIE2 (unknown origin) by FRET analysis
[31] = Half life in dog liver microsomes; conditions: liver microsomes
[32] = Half life in human liver microsomes; conditions: liver microsomes
Canis familiaris = experiment: Clearance in beagle dog at 1 mg/kg, iv; format: ADME, organism-based, Canis lupus familiaris; set-up: dose 1 mg/kg, route intravenous; conditions: in vivo
Cytochrome P450 2C9 = Cytochrome P450 2C9 (Homo sapiens, UniProt P11712); experiment: Inhibition of CYP2C9 (unknown origin) by fluorescence assay
Angiopoietin-1 receptor [33] = biological target: T2, Angiopoietin-1 receptor; experiment: Inhibition of TIE2 (unknown origin) by cell-based assay
[34] = Half life in mouse liver microsomes; conditions: liver microsomes
[35] = Half life in rat liver microsomes; conditions: liver microsomes
Cytochrome P450 2C19 = Cytochrome P450 2C19 (Homo sapiens, UniProt P33261); experiment: Inhibition of CYP2C19 (unknown origin) by fluorescence assay
[36] = Antitumor activity against human HCT116 cells xenografted in athymic CD-1 nude mouse assessed as tumor growth inhibition at MTD, po qd administered 1-on/3-off schedule up to day 21 measured on day 35; format: functional, HCT-116

Chain of Cytochrome P450 2D6 (P10635 whole entry): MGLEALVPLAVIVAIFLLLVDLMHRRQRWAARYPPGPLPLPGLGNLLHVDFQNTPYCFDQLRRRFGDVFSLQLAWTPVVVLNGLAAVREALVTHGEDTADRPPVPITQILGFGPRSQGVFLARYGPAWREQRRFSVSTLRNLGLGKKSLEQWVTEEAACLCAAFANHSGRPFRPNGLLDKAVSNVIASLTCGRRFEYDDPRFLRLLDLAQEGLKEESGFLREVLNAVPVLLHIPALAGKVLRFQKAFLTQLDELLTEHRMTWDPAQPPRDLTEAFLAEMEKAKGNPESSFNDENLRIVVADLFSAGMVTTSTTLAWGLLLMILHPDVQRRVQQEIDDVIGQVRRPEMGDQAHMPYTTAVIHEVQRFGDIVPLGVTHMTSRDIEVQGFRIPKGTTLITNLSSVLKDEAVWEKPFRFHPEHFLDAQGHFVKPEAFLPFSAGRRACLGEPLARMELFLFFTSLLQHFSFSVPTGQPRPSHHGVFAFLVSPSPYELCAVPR
T2 sequence (Q02763 whole entry): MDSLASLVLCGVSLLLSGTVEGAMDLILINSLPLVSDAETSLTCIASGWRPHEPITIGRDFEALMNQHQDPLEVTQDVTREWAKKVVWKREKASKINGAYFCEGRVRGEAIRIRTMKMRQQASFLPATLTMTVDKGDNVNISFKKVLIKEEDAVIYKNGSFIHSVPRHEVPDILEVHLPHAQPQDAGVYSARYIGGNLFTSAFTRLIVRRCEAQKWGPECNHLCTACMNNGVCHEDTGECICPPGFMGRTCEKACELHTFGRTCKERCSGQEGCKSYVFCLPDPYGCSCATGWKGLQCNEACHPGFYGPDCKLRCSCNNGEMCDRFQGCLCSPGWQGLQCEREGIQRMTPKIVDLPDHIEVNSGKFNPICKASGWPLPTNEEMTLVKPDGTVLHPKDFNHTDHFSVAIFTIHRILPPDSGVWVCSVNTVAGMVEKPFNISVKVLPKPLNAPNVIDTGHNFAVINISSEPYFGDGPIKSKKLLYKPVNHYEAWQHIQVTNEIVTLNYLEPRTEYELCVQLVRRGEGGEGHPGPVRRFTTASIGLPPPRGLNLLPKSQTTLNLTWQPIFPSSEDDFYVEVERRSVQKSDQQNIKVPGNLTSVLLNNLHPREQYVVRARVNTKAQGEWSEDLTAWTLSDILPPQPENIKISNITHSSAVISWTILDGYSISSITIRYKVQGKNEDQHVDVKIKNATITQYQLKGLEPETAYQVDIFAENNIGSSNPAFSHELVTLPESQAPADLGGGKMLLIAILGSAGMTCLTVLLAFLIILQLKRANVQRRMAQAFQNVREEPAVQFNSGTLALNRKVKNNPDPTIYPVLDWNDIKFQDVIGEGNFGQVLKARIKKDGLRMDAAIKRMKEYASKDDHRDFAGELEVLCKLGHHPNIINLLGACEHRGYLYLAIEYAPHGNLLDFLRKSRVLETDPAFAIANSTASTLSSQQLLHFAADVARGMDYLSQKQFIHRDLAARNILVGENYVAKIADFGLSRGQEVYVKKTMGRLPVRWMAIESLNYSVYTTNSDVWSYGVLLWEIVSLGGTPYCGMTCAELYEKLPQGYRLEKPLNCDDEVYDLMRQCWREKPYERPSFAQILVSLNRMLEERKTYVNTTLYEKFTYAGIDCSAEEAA
Chain of Cytochrome P450 2C19 (P33261 whole entry): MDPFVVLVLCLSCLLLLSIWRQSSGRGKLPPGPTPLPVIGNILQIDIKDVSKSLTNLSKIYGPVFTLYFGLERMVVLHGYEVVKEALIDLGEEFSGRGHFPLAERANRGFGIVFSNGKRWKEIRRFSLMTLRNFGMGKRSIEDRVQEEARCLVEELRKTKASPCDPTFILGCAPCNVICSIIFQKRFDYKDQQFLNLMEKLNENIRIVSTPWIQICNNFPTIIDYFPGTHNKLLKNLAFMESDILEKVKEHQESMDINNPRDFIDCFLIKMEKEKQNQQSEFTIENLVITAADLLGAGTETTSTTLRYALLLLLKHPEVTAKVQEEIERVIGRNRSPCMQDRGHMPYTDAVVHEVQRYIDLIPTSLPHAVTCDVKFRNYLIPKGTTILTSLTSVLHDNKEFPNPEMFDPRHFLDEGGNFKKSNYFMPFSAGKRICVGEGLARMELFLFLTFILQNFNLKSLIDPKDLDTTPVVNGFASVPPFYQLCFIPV
Chain of Cytochrome P450 2C9 (P11712 whole entry): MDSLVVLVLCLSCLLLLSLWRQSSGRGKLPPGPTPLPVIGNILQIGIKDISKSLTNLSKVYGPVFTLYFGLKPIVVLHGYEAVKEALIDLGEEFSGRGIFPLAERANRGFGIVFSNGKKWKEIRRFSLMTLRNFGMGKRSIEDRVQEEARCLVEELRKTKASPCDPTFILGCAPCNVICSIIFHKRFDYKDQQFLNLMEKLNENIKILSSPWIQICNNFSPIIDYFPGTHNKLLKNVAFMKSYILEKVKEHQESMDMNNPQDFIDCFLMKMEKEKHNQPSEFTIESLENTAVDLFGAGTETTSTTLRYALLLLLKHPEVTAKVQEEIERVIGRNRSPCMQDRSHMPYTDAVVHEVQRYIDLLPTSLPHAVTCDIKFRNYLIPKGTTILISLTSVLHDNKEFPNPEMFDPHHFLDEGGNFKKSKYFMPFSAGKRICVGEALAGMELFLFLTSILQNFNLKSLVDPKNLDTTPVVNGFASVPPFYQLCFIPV

Compound `C[C@@H]1CN(Cc2ccc(/C=C/c3n[nH]c4cc([C@@H]5C[C@@]56C(=O)Nc5ccccc56)ccc34)cc2)C[C@H](C)O1` has a GI50 [1] of 90 nM, an AUC(0-inf) [2] of 1230 ng·h/mL and an Activity (Mus musculus [3]) of over 20%. It also gave an inhibition in vivo at 3 mg/kg (A549 [4]) of 44%, a GI50 (A549 [5]) of 9 nM and an inhibition in vivo at 9.4 mg/kg (MDA-MB-468 [6]) of 90%. The MTD at 21 days [7] was 36 mg/kg, the half-life [8] was 4.5 h and the TGI [9] was 78%. The bioavailability [10] was 46%, the GI50 [11] was 15 nM and the bioavailability [12] was 49%. It also gave a GI50 (HCC1954) of 8 nM, a GI50 [13] of 8 nM and a GI50 (MDA-MB-231) of 6500 nM. For the same compound, the Cmax [14] was 3700 ng/mL, the inhibition in vivo at 3 mg/kg [15] was 57% and the AUC [16] was 10000 ng·h/mL. For the same compound, the inhibition in vivo at 9.4 mg/kg [17] was 80%, the AUC(0-inf) [18] was 4990 ng·h/mL and the inhibition in vivo at 9.4 mg/kg (A549 [19]) was 79%. The inhibition in vivo at 3 mg/kg (MDA-MB-468 [20]) was 45%, the GI50 at 120 h [21] was 8400 nM and the AUC(0-inf) [22] was 2810 ng·h/mL. The GI50 [23] was 91 nM, the AUC(0-inf) [24] was 2050 ng·h/mL and the “inhibition (INH)” value (Cytochrome P450 2D6) was “Not Active”. The Activity (Mus musculus [25]) was “Non-toxic”, the “inhibition (INH)” value (Cytochrome P450 1A2) was “Not Active” and the GI50 [26] was 57 nM. The half-life [27] was 3.9 h, the GI50 [28] was 7200 nM and the GI50 (MCF7) was 17 nM. The GI50 (SW-620) was 350 nM and the GI50 (MDA-MB-468 [29]) was 10 nM.
`COc1ccc2c(c1)[C@]1(C[C@H]1c1ccc3c(/C=C/c4ccc(CN5C[C@@H](C)O[C@@H](C)C5)cc4)n[nH]c3c1)C(=O)N2` [OCIFISERTIB] showed a GI50 [1] of 58 nM, an AUC(0-inf) [2] of 534 ng·h/mL and an Activity (Mus musculus [3]) of over 20%. For the same compound, the clearance (Rattus norvegicus) was 31.7 mL/min/kg, the inhibition in vivo at 3 mg/kg (A549 [4]) was 32% and the GI50 (A549 [5]) was 5 nM. It also gave an inhibition in vivo at 9.4 mg/kg (MDA-MB-468 [6]) of 77%, an MTD at 21 days [7] of 39 mg/kg and a half-life [8] of 2.1 h. It also gave an IC50 (Angiopoietin-1 receptor [30]) of 22 nM, a TGI [9] of 98% and a half-life [31] of 0.717 h. It also gave a half-life [32] of over 1 h, a bioavailability [10] of 21% and a GI50 [11] of 18 nM. It also gave a bioavailability [12] of 66%, a clearance (Canis familiaris) of 16 mL/min/kg and a GI50 (HCC1954) of 5 nM. It also gave a GI50 [13] of 4 nM, a GI50 (MDA-MB-231) of 8600 nM and a Cmax [14] of 2200 ng/mL. The inhibition in vivo at 3 mg/kg [15] was 7%, the IC50 (Cytochrome P450 2C9) was 940 nM and the AUC [16] was 9800 ng·h/mL. The EC50 (Angiopoietin-1 receptor [33]) was 117 nM, the half-life [34] was 0.4 h and the half-life [35] was 0.883 h. The inhibition in vivo at 9.4 mg/kg [17] was 86%, the AUC(0-inf) [18] was 3460 ng·h/mL and the inhibition in vivo at 9.4 mg/kg (A549 [19]) was 70%. It also gave an inhibition in vivo at 3 mg/kg (MDA-MB-468 [20]) of 57%, a GI50 at 120 h [21] of 9000 nM and an AUC(0-inf) [22] of 767 ng·h/mL. The IC50 (Cytochrome P450 2C19) was 1400 nM, the GI50 [23] was 260 nM and the AUC(0-inf) [24] was 1050 ng·h/mL. For the same compound, the “inhibition (INH)” value (Cytochrome P450 2D6) was “Not Active”, the Activity (Mus musculus [25]) was “Non-toxic” and the “inhibition (INH)” value (Cytochrome P450 1A2) was “Not Active”. For the same compound, the TGI [36] was 93%, the GI50 [26] was 17 nM and the half-life [27] was 2 h. The GI50 [28] was 5300 nM, the GI50 (MCF7) was 8 nM and the GI50 (SW-620) was 380 nM. The GI50 (MDA-MB-468 [29]) was 6 nM.
